Assay results reported in US9133158B2, “Bicyclic dihydroisoquinoline-1-one derivatives” (Hoffmann-La Roche Inc., priority 2011, dated 2015).
pEC50: −log10 of the molar value.

Assays:
human CYP11B2 = biological target: T1, human CYP11B2 (Homo sapiens, UniProt P19099); assay: G-402 cellular enzyme assay, human CYP11B2 (aldosterone release, HTRF); type: cell-based; settings: G-402 cells, 1 μM Deoxycorticosterone
T1 construct: expressed in transfected cells
T1 sequence (P19099 25-503): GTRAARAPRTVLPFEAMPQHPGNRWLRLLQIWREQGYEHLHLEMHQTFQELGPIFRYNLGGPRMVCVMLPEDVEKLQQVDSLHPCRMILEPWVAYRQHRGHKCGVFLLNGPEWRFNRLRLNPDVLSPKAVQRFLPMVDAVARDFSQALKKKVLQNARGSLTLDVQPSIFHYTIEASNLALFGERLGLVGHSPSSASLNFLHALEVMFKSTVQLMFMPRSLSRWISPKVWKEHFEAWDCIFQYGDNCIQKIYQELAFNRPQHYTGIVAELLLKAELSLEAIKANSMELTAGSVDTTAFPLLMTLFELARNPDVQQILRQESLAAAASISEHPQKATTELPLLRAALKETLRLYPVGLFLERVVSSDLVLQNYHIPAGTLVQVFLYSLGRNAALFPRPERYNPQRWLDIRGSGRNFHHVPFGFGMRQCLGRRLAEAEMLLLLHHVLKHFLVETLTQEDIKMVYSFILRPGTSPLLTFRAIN
How it was run: (§1)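 Supernatant steroid product measured by HTRF (aldosterone for CYP11B2, cortisol for CYP11B1) after 16 h exposure of stably transfected G-402 cells to compound. Substrates were 1 μM deoxycorticosterone and 1 μM deoxycortisol, respectively; EC50 derived from a four-parameter MMF curve fit.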

human CYP11B1 = biological target: T2, human CYP11B1 (Homo sapiens, UniProt P15538); assay: G-402 cellular enzyme assay, human CYP11B1 (cortisol release, HTRF); type: cell-based; settings: G-402 cells, 1 μM Deoxycortisol
T2 construct: expressed in transfected cells
T2 sequence (P15538 25-503): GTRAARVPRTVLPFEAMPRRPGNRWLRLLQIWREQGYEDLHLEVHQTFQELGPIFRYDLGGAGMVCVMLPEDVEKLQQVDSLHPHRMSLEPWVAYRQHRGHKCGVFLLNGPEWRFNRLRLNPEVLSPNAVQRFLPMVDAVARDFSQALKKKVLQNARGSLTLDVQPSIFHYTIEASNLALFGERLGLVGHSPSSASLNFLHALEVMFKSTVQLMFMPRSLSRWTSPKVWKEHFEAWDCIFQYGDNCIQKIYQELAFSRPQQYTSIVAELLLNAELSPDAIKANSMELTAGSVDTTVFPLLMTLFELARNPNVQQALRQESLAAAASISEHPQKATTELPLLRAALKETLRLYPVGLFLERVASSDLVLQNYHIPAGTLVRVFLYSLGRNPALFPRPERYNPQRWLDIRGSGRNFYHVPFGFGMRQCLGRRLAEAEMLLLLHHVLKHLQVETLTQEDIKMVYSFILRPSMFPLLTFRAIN
How it was run: as §1

| SMILES | pEC50 (human CYP11B2) | pEC50 (human CYP11B1) |
| --- | --- | --- |
| O=C1c2ccc(Cl)cc2CCN1c1cncc(CNc2ccc(F)cc2)c1 [Example 258, 6-Chloro-2-{5-[(4-fluoro-phenylamino)-methyl]-pyridin-3-yl}-3,4-dihydro-2H-isoquinolin-1-one] | 8.43 | 7.38 |
| O=C1CCCCN1Cc1cncc(N2CCc3cc(Cl)ccc3C2=O)c1 [Example 173, 6-Chloro-2-[5-(2-oxo-piperidin-1-ylmethyl)-pyridin-3-yl]-3,4-dihydro-2H-isoquinolin-1-one] | 6.48 | 4.91 |
| CCC(=O)N1CCN(c2cncc(N3C(=O)c4ccc(Cl)cc4C3(C)C)c2)CC1 [Example 456, 5-Chloro-3,3-dimethyl-2-[5-(4-propionyl-piperazin-1-yl)-pyridin-3-yl]-2,3-dihydro-isoindol-1-one] | 8.92 | 6.98 |
| Cn1ncc(Cl)c1-c1cncc(N2C(=O)c3ccc(Cl)cc3C2(C)C)c1 [Example 427, 5-Chloro-2-[5-(4-chloro-2-methyl-2H-pyrazol-3-yl)-pyridin-3-yl]-3,3-dimethyl-2,3-dihydro-isoindol-1-one] | 8.62 | 7.33 |
| CCCc1nccn1Cc1cncc(N2CCc3cc(Cl)ccc3C2=O)c1 [Example 161, 6-Chloro-2-[5-(2-propyl-imidazol-1-ylmethyl)-pyridin-3-yl]-3,4-dihydro-2H-isoquinolin-1-one] | 6.99 | 6.47 |
| Cc1noc(C)c1-c1cncc(N2CCc3cc(Cl)ccc3C2=O)c1 [Example 230, 6-Chloro-2-[5-(3,5-dimethyl-isoxazol-4-yl)-pyridin-3-yl]-3,4-dihydro-2H-isoquinolin-1-one] | 8.15 | 6.83 |
| O=C1c2ccc(Cl)cc2CCN1c1cncc(-c2cccc(C(F)(F)F)c2)c1 [Example 236, 6-Chloro-2-[5-(3-trifluoromethyl-phenyl)-pyridin-3-yl]-3,4-dihydro-2H-isoquinolin-1-one] | 6.87 | 5.36 |
| COc1ccc2c(n1)C(C)(C)N(c1cncc(OC(F)F)c1)C2=O [Example 295, 6-(5-Difluoromethoxy-pyridin-3-yl)-2-methoxy-7,7-dimethyl-6,7-dihydro-pyrrolo[3,4-b] pyridin-5-one] | 7.31 | 6.07 |
| CC(=O)NC1CCCc2c1cncc2N1C(=O)c2ccc(Cl)cc2C1(C)C (single isomer, unassigned) [Example 466, N—[(S or R)-4-(6-Chloro-1,1-dimethyl-3-oxo-1,3-dihydro-isoindol-2-yl)-5,6,7,8-tetrahydro-isoquinolin-8-yl]-acetamide] | 6.33 | 4.67 |
| Cn1ccnc1C(=O)c1cncc(N2CCc3cc(Cl)ccc3C2=O)c1 [Example 267, 6-Chloro-2-[5-(1-methyl-4H-imidazole-2-carbonyl)-pyridin-3-yl]-3,4-dihydro-2H-isoquinolin-1-one] | 5.79 | 4.95 |
| O=C1c2ccc(Cl)cc2CCN1c1cncc(Cn2cncn2)c1 [Example 180, 6-Chloro-2-(5-[1,2,4]triazol-1-ylmethyl-pyridin-3-yl)-3,4-dihydro-2H-isoquinolin-1-one] | 6.91 | 6.10 |
| O=C1c2ccc(Cl)cc2CCN1c1cncc(NS(=O)(=O)C2CC2)c1 [Example 221, Cyclopropanesulfonic acid [5-(6-chloro-1-oxo-3,4-dihydro-1H-isoquinolin-2-yl)-pyridin-3-yl]-amide] | 5.67 | 4.99 |
| Nc1ccn(Cc2cncc(N3CCc4cc(Cl)ccc4C3=O)c2)n1 [Example 382, 2-[5-(3-Amino-pyrazol-1-ylmethyl)-pyridin-3-yl]-6-chloro-3,4-dihydro-2H-isoquinolin-1-one] | 7.47 | 5.82 |
| O=C1c2ccc(Cl)cc2CCN1c1cncc(CN2CC3(COC3)C2)c1 [Example 171, 6-Chloro-2-[5-(2-oxa-6-aza-spiro[3.3]hept-6-ylmethyl)-pyridin-3-yl]-3,4-dihydro-2H-isoquinolin-1-one] | 7.76 | 7.05 |
| CS(=O)(=O)NC1CCCc2c1cncc2N1Cc2cc(Cl)ccc2C1=O (single isomer, unassigned) [Example 327, N-[(R or S)-4-(5-Chloro-1-oxo-1,3-dihydro-isoindol-2-yl)-5,6,7,8-tetrahydro-isoquinolin-8-yl]-methanesulfonamide] | 5.86 | 4.97 |
| Cc1nccn1Cc1cncc(N2C(=O)c3ccc(Cl)cc3C2(C)C)c1 [Example 134, 5-Chloro-3,3-dimethyl-2-[5-(2-methyl-imidazol-1-ylmethyl)-pyridin-3-yl]-2,3-dihydro-isoindol-1-one] | 7.73 | 6.37 |
| O=C1c2ccc(Cl)cc2CCN1c1cncc(CO)c1 [Example 3, 6-Chloro-2-(5-hydroxymethyl-pyridin-3-yl)-3,4-dihydro-2H-isoquinolin-1-one] | 7.02 | 5.43 |
| O=C1c2ccc(Cl)cc2C(C2CC2)N1c1cncc(OC(F)F)c1 (stereo not shown) [Example 302, 5-Chloro-3-cyclopropyl-2-(5-difluoromethoxy-pyridin-3-yl)-2,3-dihydro-isoindol-1-one] | 7.03 | 5.29 |
| CCC1c2ccc(Cl)cc2C(=O)N1c1cncc(F)c1 (single isomer, unassigned) [Example 308, (R or S)-6-Chloro-3-ethyl-2-(5-fluoro-pyridin-3-yl)-2,3-dihydro-isoindol-1-one] | 6.42 | 4.58 |
| CC1(C)c2cc(Cl)ccc2C(=O)N1c1cncc(Cn2ccc(N)n2)c1 [Example 380, 2-[5-(3-Amino-pyrazol-1-ylmethyl)-pyridin-3-yl]-5-chloro-3,3-dimethyl-2,3-dihydro-isoindol-1-one] | 7.44 | 5.62 |
| CC1CN(c2cccnc2)C(=O)c2ccc(Cl)cc21 (stereo not shown) [Example 105, 6-Chloro-4-methyl-2-pyridin-3-yl-3,4-dihydro-2H-isoquinolin-1-one] | 6.42 | 5.35 |
| O=C1c2ccc(Cl)cc2CCN1c1cnccc1C(O)c1ccc(F)cc1 (stereo not shown) [Example 63, 6-Chloro-2-{4-[(4-fluoro-phenyl)-hydroxy-methyl]-pyridin-3-yl}-3,4-dihydro-2H-isoquinolin-1-one] | 6.35 | 5.35 |
| O=C1c2ccc(Cl)cc2CCN1c1cncc(-c2cn[nH]c2)c1 [Example 229, 6-Chloro-2-[5-(1H-pyrazol-4-yl)-pyridin-3-yl]-3,4-dihydro-2H-isoquinolin-1-one] | 6.69 | 6.13 |
| O=C1c2ccc(Cl)cc2CCN1c1cncc(CN2CCC(F)(F)C2)c1 [Example 169, 6-Chloro-2-[5-(3,3-difluoro-pyrrolidin-1-ylmethyl)-pyridin-3-yl]-3,4-dihydro-2H-isoquinolin-1-one] | 8.28 | 7.42 |
| CC(C)C(=O)Nc1cncc(N2CCc3cc(Cl)ccc3C2=O)c1 [Example 247, N-[5-(6-Chloro-1-oxo-3,4-dihydro-1H-isoquinolin-2-yl)-pyridin-3-yl]-isobutyramide] | 5.34 | 5.13 |
| O=C1c2ccc(Cl)cc2CCN1c1cncc(Cn2ccnc2Cl)c1 [Example 176, 6-Chloro-2-[5-(2-chloro-imidazol-1-ylmethyl)-pyridin-3-yl]-3,4-dihydro-2H-isoquinolin-1-one] | 8.01 | 7.24 |
